Publication PMC3690454, “14-3-3 Proteins Interact with a Hybrid Prenyl-Phosphorylation Motif to Inhibit G Proteins” (Cell, 2013)

How the values were obtained:
Rnd3/14-3-3 interaction = test: Co-immunoprecipitation of Rnd3 with 14-3-3 proteins from treated COS7 cells; assay type: cell-based; conditions: staurosporine 100 nM 2 hr, calyculin A 100 nM 20 min, FTI (L-744,832) 10 μM 16 hr, immunoblot
Protocol: COS7 cells grown in Dulbecco’s modified Eagle’s medium (DMEM) containing 10% bovine fetal calf serum and penicillin/streptomycin (Invitrogen) were electroporated with 5 μg DNA at 250 V and 960 μF using 0.4 cm Gene Pulser Cuvettes (Bio-Rad) in 250 μl of electroporation buffer (120 mM KCl, 10 mM K2PO4/KH2PO4 [pH 7.6], 25 mM HEPES [pH 7.6], 2 mM MgCl2, and 0.5% Ficoll). Cells were analyzed 24 hr after transfection. NIH 3T3 cells grown in DMEM containing 10% donor bovine serum and penicillin/streptomycin were transfected using FuGENE 6 (Roche) according to the manufacturer’s instructions. Where indicated, cells were treated for 20 min with 100 nM calyculin A (Alexis); for 2 hr with 100 nM staurosporine (Calbiochem), 20 μM H-1152 (Calbiochem), 1 μM bisindolylmaleimide I (BIM1, Calbiochem), or 100 nM phorbol-12-myristate-13-acetate (PMA, Cell Signaling Technology); and for 16 hr with 10 μM L-744,832 farnesyltransferase inhibitor (FTI, Calbiochem).
Transfected COS7 cells were lysed in lysis buffer LB (1% Triton X-100, 20 mM Tris–HCl [pH 8], 130 mM NaCl, 1 mM dithiothreitol [DTT], 10 mM sodium fluoride, complete EDTA-free protease inhibitor cocktail [Roche], phosphatase inhibitor cocktails [set II+IV, Calbiochem]). After centrifugation (13,000 g, 4°C, 10 min), soluble proteins were precleared then incubated with either mouse nonimmune IgG as a control, mouse anti-HA (HA-7) or mouse anti-FLAG (M2) antibody on agarose beads (Sigma-Aldrich) for 2 hr at 4°C. Beads were washed five times with lysis buffer (containing 260 mM NaCl), then bound proteins were eluted in Laemmli sample buffer (LSB), resolved by SDS–PAGE and analyzed by immunoblotting.

[1] = test system: GST-14-3-3β / Rnd3 interaction; test: Peptide competition in GST-14-3-3β pull-down of FLAG-Rnd3 from COS7 lysates; assay type: binding; conditions: peptide 10 μg/ml preincubated 15 min at 4°C with GST-14-3-3β; immunoblot
Protocol: Recombinant GST-14-3-3β was expressed and purified from E. coli (Extended Experimental Procedures). FLAG-Rnd3-transfected COS7 cells were lysed in LB buffer. After removal of insoluble material, precleared cell lysates were incubated at 4°C for 2 hr with the recombinant GST or GST-14-3-3β protein (5 μg) on glutathione beads (Amersham Biosciences). Beads were washed with LB buffer before eluting the proteins in LSB. The proteins were resolved by SDS-PAGE and analyzed by immunoblotting.
For peptide competition experiments (Table S3; Extended Experimental Procedures), peptides (10 μg/ml) were preincubated for 15 min at 4°C with the GST-14-3-3β prior to the addition of precleared cell lysates.

Row | Compound | effect on Rnd3/14-3-3 interaction (Rnd3/14-3-3 interaction) | inhibition of the interaction between GST-14-3-3β and Rnd3 [1]
1 | CC[C@H](C)[C@@H](CO[C@@H](Cc1ccccc1)C(=O)N[C@@H](CCS(C)(=O)=O)C(=O)OC(C)C)NC[C@@H](N)CS [FTI, L-744,832] | prevented | 
2 | COC[C@@H]([C@H](O)[C@H](O)C(=O)NCC[C@H](C)c1nc(/C=C/C[C@@H]2O[C@]3(C[C@@H](O)[C@@H]2C)O[C@H]([C@H](C[C@H](O)[C@H](C)[C@H](O)[C@H](C)/C=C(C)/C(C)=C/C=C/C(C)=C\C#N)OC)[C@H](OP(=O)(O)O)C3(C)C)co1)N(C)C [calyculin A] | increased | 
3 | CN[C@@H]1C[C@H]2O[C@@](C)([C@@H]1OC)n1c3ccccc3c3c4c(c5c6ccccc6n2c5c31)C(=O)NC4 [staurosporine] | reduced | 
4 | N-CDRSKpSAPTS-C [PKC, reference compound] |  | inhibited
